Data as given in patent EP3815699A1, “NEW MEANS AND METHODS FOR THERAPY AND DIAGNOSIS OF […]” (Technische Universität München, priority 2019, dated 2021).
Entries after “also recorded” stand apart in the source; their conditions may differ. Read-outs that look alike come from different tables or passages of the source.

Assays:
HAdV-C5 wt [1] = assay: Native agarose gel electrophoresis capsid formation assay (Fig. 3D); type: cell-based
H1299 cells = type: cell-based, Human; conditions: lower panel
Description: (§1) • Figure 1: ATO efficiently reduces HAdV infectivity (cf. Example 1). H1299 cells were infected with HAdV-C5 wt at a multiplicity of 5 FFU/cell, treated with the depicted concentrations of ATO at 2 h.p.i., fixed 48 h.p.i. with 4 % PFA and double labeled with mAb B6-8 (α-E2A) and pAb L133 (α-Capsid). Primary antibodies were detected using Alexa488 (E2A, green) and Alexa568 (Capsid, red) conjugated secondary antibodies. (A) The number of E2A and Capsid expressing cells, respectively, was counted in n=40 overview pictures (not shown), normalized to untreated, infected cells, and represented in bar charts. Bar charts represent average values and standard deviations based on four independent experiments. (B) H1299 cells were infected with HAdV-C5 at a multiplicity of 20 FFU/cell, and treated with the depicted concentrations of ATO at 2 h.p.i.. Viral particles were harvested 48 h.p.i. and virus yield was determined by quantitative E2A immunofluorescence staining in 293 cells. Bar charts represent average values and standard deviations based on three independent experiments. Statistically significant differences were determined using a two-sided Welch's t-test. *: P ≤ 0.05, **: P ≤ 0.01, ***: P ≤ 0.001, ****: P ≤ 0.0001. • Figure 2: ATO induces a dose dependent reduction of HAdV infectivity with minor effects on cell viability (cf. Example 2). […] 24 or 48 h.p.i., cell viability was assessed using the Promega CellTiter-Blue Cell Viability Assay system, prior to fixation with 4 % PFA and cells were double labeled with mAb B6-8 (α-E2A) and pAb L133 (α-Capsid). Primary antibodies were detected using Alexa488 (E2A, green) and Alexa647 (Capsid, red) conjugated secondary antibodies. Fluorescence intensity was measured using a Tecan Infinite 200M plate reader using an excitation and emission wavelength of 488 and 520nm for Alexa488 and 640 and 670nm for Alexa647 respectively. Fluorescence intensity was normalized to untreated, infected cells at 48h p.i.. xy charts represent average values and standard deviations based on three independent experiments measured in triplicates. […]

HAdV-C5 wt [2] = assay: Quantitative RT-PCR of viral E1A and Hexon mRNA (Fig. 3B); type: cell-based; conditions: 2µM ATO, 48h
[3] = test system: eGFP expressing HAdV-C5 based first generation adenoviral vector; assay: GFP fluorescence of non-replicating adenoviral vector in H1299 cells (Fig. 2C); type: cell-based; conditions: for GFP expression compared to the untreated control: 8µM ATO; for IC50: read-out: IC50 (GFP expression)
Description: as §1, with “triplicates. (B) H1299 cells were infected with an HAdV-C5 delta E3 virus, encoding a CMV promoter driven eGFP expression cassette, at a multiplicity of 20FFU/cell and treated with the depicted concentrations of ATO at 2h p.i.; 24 or 48 h p.i. cell viability was assessed using the Promega CellTiter-Blue Cell Viability Assay system, and GFP fluorescence intensity was measured using a Tecan Infinite 200M plate reader using an excitation and emission wavelength of 488 and 520nm. Fluorescence intensity was normalized to untreated, infected cells at 48h p.i.; xy charts represent average values and standard deviations based on three independent experiments measured in triplicates.” for “triplicates.”

HAdV-C5 wt [4] = assay: Immunofluorescence count of E2A and capsid expressing infected cells (Fig. 1A); type: cell-based
Description: as §1, with “triplicates. (B) H1299 cells were infected with an HAdV-C5 delta E3 virus, encoding a CMV promoter driven eGFP expression cassette, at a multiplicity of 20FFU/cell and treated with the depicted concentrations of ATO at 2h p.i.; 24 or 48 h p.i. cell viability was assessed using the Promega CellTiter-Blue Cell Viability Assay system, and GFP fluorescence intensity was measured using a Tecan Infinite 200M plate reader using an excitation and emission wavelength of 488 and 520nm. Fluorescence intensity was normalized to untreated, infected cells at 48h p.i.; xy charts represent average values and standard deviations based on three independent experiments measured in triplicates.” for “triplicates.”

HAdV-C5 wt [5] = assay: Immunofluorescence count of HAdV replication centers marked by E2A (Fig. 4B); type: cell-based; conditions: HAdV infected cells
HAdV-C5 = assay: Virus yield / progeny production by quantitative E2A immunofluorescence staining in 293 cells (Fig. 1B); type: cell-based
Description: as §1

[6] = test system: HAdV-C5 delta E3 virus, encoding a CMV promoter driven eGFP expression cassette; assay: IncuCyte live-cell imaging, real-time kinetics of GFP expression (Fig. 2D); type: cell-based; conditions: 60h p.i., A549 cells
PML-NBs = assay: Immunofluorescence count of PML-NBs per cell in uninfected H1299 cells (Fig. 4A); type: cell-based, Human; conditions: non-infected cells
PML-NBs, sequence (P29590 1-418 limits assumed): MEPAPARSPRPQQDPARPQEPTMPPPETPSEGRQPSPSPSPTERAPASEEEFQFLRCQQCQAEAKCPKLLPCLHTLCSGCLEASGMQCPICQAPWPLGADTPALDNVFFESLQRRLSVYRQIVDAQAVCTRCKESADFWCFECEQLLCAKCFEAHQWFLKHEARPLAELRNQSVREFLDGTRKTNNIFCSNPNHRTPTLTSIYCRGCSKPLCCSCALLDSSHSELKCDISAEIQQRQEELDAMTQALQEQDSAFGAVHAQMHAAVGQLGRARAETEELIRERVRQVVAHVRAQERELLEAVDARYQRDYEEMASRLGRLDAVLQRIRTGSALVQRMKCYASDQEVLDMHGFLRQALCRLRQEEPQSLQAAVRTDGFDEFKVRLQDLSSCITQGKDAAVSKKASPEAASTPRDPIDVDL

[7] = ATO concentration not stated at the place

In the case of arsenic trioxide [ATO], the “signal obtained after capsid staining (native gel assay)” value (HAdV-C5 wt [1]) is reported as “significantly reduced”, the capsid protein expression (HAdV-C5 wt [1]; denatured input lysates, right panel) is reported as “reduced” and the “cellular cytotoxicity of ATO” value (H1299 cells; H1299 infected with HAdV-C5 wt, ATO 0-10 µM, Fig. 2A) is reported as “no clear effect”. The “cellular cytotoxicity of ATO” value (H1299 cells; H1299 infected with non-replicating eGFP vector, ATO 0-8µM, Fig. 2C) was “no clear effect”, the “cellular cytotoxicity of ATO” value (H1299 cells; H1299 infected with replication competent HAdV-GFP, Fig. 2B) was “no clear effect” and the “inhibition of Hexon viral mRNA expression” value (HAdV-C5 wt [2]) was 60%. The “GFP expression compared to the untreated control” value ([3]; 24h p.i.) was “Less than 50%”, the “GFP expression compared to the untreated control” value ([3]; 48h p.i.) was “Less than 50%” and the IC50 ([3]; 24h p.i.) was 6.49 µM. For the same substance, the IC50 ([3]; 48h p.i.) was 10.2 µM, the “reduction of early viral DNA binding protein E2A expression” value (HAdV-C5 wt [4]; 1µM ATO, H1299, 5 FFU/cell, ATO at 2 h.p.i., 48 h.p.i.) was 40% and the “inhibition of late capsid protein expression” value (HAdV-C5 wt [4]; 2.0µM ATO, H1299, 5 FFU/cell, ATO at 2 h.p.i., 48 h.p.i.) was about 80%. For the same substance, the “reduction in cells expressing E2A” value (HAdV-C5 wt [4]; [7]) was “up to 40%”, the “reduction in cells expressing capsid” value (HAdV-C5 wt [4]; [7]) was “up to 80%” and the “RC in number (replication centers)” value (HAdV-C5 wt [5]) was “significant reduction”. For the same substance, the “reduction of virus yield” value (HAdV-C5; 1µM ATO, H1299, 20 FFU/cell, harvested 48 h.p.i.) was 80%, the “virus particle synthesis / virus yield” value (HAdV-C5; 2µM ATO, compared to non-treated infected control cells) was “abolished; also recorded: completely abolishing” and the “reduction in virus yield” value (HAdV-C5; ATO concentration not given) was 80%. The “reduction of GFP expression / viral load over time” value [6] was “four-fold” and the “number of PML-NBs” value (PML-NBs) was “significantly decreases”.
